Laboratory results taken from ChEMBL document CHEMBL1149421, “Potent 4-arylalkyl-substituted 3-isothiazolol GABA(A) competitive/noncompetitive antagonists: synthesis and pharmacology” (J Med Chem, 2006).

Experiments:
[1] = target: GABA A receptor alpha-5/beta-3/gamma-2 (Rattus norvegicus, UniProt P18508+P19969+P63079); test: Displacement of [3H]muscimol from GABAA alpha-1-beta-3-gamma-2S in rat brain membrane; assay type: cell membranes
[2] = target: T1, GABA-A receptor; alpha-1/beta-3/gamma-2 (Homo sapiens, UniProt P14867+P18507+P28472); test: Binding affinity at human GABAA alpha-1-beta-3-gamma-2S expressed in Xenopus oocytes by voltage-clamp electrophysiology; assay type: functional, cell-based, Oocyte
T1 sequence (P14867 whole entry): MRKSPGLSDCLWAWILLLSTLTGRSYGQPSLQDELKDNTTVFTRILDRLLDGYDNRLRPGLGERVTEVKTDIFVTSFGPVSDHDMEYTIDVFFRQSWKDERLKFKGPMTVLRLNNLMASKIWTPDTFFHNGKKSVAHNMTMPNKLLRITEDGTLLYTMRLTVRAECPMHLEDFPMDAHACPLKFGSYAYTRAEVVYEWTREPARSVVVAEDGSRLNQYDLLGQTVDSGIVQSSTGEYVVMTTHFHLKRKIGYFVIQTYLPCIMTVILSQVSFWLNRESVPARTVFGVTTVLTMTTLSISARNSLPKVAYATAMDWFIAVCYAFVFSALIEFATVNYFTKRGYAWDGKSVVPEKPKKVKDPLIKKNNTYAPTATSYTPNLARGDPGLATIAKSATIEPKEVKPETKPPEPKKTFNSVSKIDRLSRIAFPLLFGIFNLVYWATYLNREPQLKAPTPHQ
T1 sequence (P18507 whole entry): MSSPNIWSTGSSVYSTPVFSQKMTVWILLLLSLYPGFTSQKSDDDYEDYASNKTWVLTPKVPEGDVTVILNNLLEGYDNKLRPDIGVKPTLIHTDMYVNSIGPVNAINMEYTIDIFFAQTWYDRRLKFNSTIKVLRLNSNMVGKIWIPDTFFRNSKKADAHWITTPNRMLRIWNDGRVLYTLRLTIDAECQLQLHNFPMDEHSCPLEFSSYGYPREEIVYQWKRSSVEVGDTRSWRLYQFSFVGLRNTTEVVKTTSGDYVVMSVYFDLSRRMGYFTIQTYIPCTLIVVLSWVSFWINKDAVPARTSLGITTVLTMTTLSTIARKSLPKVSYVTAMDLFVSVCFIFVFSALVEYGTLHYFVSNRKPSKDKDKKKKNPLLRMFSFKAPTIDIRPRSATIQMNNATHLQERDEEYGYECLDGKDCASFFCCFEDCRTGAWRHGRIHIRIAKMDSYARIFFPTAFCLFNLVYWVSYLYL
T1 sequence (P28472 whole entry): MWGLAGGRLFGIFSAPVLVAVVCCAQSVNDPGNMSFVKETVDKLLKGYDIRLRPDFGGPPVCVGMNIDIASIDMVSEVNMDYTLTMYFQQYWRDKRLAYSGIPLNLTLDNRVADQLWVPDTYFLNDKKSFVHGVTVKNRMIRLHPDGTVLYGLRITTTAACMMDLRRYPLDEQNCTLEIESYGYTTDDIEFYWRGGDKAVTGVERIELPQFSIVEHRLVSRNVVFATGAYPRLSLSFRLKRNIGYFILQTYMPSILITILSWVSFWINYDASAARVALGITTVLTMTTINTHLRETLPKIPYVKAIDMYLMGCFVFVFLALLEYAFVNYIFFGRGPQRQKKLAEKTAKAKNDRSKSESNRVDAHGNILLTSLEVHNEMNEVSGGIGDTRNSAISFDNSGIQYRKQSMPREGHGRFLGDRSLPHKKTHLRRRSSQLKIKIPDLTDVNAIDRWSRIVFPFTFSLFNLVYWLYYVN

[3] = Binding affinity at human GABAA alpha-4-beta-3-delta expressed in Xenopus oocytes by voltage-clamp electrophysiology; assay type: functional, cell-based; conditions: oocyte
[4] = Maximal effect at GABA alpha-4-beta-3-delta expressed in Xenopus oocytes; assay type: functional; conditions: Homo sapiens, Oocyte
[5] = target: GABA-A receptor; alpha-1/beta-3/gamma-2 (Homo sapiens) (UniProt P14867+P18507+P28472); test: Maximal effect at GABA alpha-1-beta-3-gamma-2S expressed in Xenopus oocytes; assay type: functional, cell-based; conditions: Oocyte

Chain of GABA A receptor alpha-5/beta-3/gamma-2 (P18508 whole entry): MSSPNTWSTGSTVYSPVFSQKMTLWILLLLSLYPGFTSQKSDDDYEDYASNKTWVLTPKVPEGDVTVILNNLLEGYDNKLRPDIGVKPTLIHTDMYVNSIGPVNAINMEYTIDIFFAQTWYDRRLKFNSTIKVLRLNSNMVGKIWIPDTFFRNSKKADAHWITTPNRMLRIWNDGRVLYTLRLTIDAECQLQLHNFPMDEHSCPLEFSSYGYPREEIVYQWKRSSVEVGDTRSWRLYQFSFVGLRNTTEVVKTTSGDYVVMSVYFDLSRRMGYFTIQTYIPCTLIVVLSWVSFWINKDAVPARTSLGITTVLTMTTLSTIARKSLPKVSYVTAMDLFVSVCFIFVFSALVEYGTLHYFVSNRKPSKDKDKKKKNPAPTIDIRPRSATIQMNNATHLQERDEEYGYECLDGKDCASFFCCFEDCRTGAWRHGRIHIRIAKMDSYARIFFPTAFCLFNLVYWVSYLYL
Chain of GABA A receptor alpha-5/beta-3/gamma-2 (P19969 whole entry): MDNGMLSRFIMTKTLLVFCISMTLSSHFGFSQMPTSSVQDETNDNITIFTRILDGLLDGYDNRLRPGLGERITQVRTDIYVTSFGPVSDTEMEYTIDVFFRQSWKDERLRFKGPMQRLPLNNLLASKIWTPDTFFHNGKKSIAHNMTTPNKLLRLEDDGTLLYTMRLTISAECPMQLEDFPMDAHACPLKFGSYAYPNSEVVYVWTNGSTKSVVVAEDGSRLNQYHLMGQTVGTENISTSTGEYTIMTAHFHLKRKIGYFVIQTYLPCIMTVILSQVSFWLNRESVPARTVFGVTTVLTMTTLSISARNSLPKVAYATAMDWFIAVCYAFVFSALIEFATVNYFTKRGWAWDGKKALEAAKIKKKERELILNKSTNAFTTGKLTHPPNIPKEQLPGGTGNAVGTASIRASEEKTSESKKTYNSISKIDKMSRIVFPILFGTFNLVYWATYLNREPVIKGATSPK
Chain of GABA A receptor alpha-5/beta-3/gamma-2 (P63079 whole entry): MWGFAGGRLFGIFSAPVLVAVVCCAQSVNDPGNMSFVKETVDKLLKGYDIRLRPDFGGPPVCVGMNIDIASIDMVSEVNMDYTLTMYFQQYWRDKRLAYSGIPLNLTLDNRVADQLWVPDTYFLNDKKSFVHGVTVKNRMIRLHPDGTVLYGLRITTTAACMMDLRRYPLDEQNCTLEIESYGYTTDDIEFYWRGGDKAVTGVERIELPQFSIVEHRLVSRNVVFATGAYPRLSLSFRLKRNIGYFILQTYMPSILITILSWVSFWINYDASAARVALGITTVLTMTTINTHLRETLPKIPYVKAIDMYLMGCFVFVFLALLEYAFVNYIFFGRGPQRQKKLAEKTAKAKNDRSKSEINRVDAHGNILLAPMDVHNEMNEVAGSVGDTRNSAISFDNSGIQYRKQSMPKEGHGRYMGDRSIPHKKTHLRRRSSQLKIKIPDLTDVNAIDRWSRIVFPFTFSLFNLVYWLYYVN

SMILES	Ki [1] [nM]	Ki [2] [nM]	Ki [3] [nM]	Emax [4] [%]	Emax [5] [%]
Oc1cc(C2CCNCC2)sn1	1870	25700	–	–	–
Cc1c(O)nsc1C1CCNCC1	2200	2880	–	–	–
Oc1nsc(C2CCNCC2)c1CCC(c1ccccc1)c1ccccc1	9.6	1.2	0.35	40	–
Oc1nsc(C2CCNCC2)c1Cc1ccc2ccccc2c1Br	1.8	3	–	–	–
Oc1nsc(C2CCNCC2)c1Cc1ccc2ccccc2c1	5.2	22	–	–	–
O=c1[nH]sc(C2CCNCC2)c1CC(c1ccccc1)c1ccccc1	388	720	–	–	–
Oc1noc(C2CCNCC2)c1Cc1ccc2ccccc2c1	49	370	–	–	–
Oc1noc(C2CCNCC2)c1CCC(c1ccccc1)c1ccccc1	68	20	2.3	–	90
CCCc1c(C2CCNCC2)s[nH]c1=O	440	230	–	–	–
Oc1nsc(C2CCNCC2)c1Cc1ccccc1	331	465	–	–	–
